Experimental data: ChEMBL document CHEMBL1122452, “Mitomycin C analogues with secondary amines at position 7” (J Med Chem, 1983)

Tests used:
[1] = test system: P388; test: Optimal dose required for antitumor activity against P-388 murine leukemia cells in mice.; format: functional, Mus musculus
[2] = test system: P388; test: Minimum effective dose required for antitumor activity against P-388 murine leukemia cells in mice.; format: functional; settings: Mus musculus, read-out: MED
[3] = test system: P388; test: Maximum % T/C with mitomycin C against P-388 murine leukemia cells in mice.; format: functional, Mus musculus
[4] = E1/2 value related to the saturated calomal electrode.; format: ADME; parameters: unit not given here
[5] = test system: P388; test: Maximum % T/C against P-388 murine leukemia cells in mice.; format: functional, Mus musculus
[6] = test system: P388; test: Leukopenia % change in WBC at optimal dose on 3rd day.; format: functional, Mus musculus
[7] = test system: B16; test: Tumor free survivors on 62nd day after ip administration of a dose of 2 mg/kg/day in B-16 melanoma in mice; out of 10; format: functional, Mus musculus; settings: route intraperitoneal
[8] = test system: B16; test: Tumor free survivors on 62nd day after ip administration of a dose of 3 mg/kg/day in B-16 melanoma in mice; format: functional, Mus musculus; settings: route intraperitoneal
[9] = test system: B16; test: Average weight change after ip administration of a dose of 3 mg/kg/day in B-16 melanoma in mice; format: functional, Mus musculus; settings: route intraperitoneal
[10] = test system: B16; test: Average weight change after ip administration of a dose of 2 mg/kg/day in B-16 melanoma in mice; format: functional, Mus musculus; settings: route intraperitoneal
[11] = test system: B16; test: Median survival time (% T/C) after ip administration of a dose of 3 mg/kg/day in B-16 melanoma in mice; format: functional, Mus musculus; settings: route intraperitoneal
[12] = test system: B16; test: Average weight change after ip administration of a dose of 5 mg/kg/day inB-16 melanoma in mice; format: functional, Mus musculus; settings: route intraperitoneal
[13] = test system: B16; test: Median survival time (% T/C) after ip administration of a dose of 2 mg/kg/day in B-16 melanoma in mice; format: functional, Mus musculus; settings: route intraperitoneal

| Structure (SMILES) | Dose [1] [mg/kg] | minimal effective dose [2] [mg/kg] | T/C [3] [%] | E1/2 [4] | T/C [5] [%] | Change in WBC [6] [%] | Cures [7] | Cures [8] | Average weight change [9] [g] | Average weight change [10] [g] | T/C [11] [%] | Average weight change [12] [g] | T/C [13] [%] |
| --- | --- | --- | --- | --- | --- | --- | --- | --- | --- | --- | --- | --- | --- |
| COC12[C@@H]3N[C@@H]3CN1C1=C(C(=O)C(N3CCCC(O)C3)=C(C)C1=O)[C@@H]2COC(N)=O (some centres undefined) | 12.8 | 0.2 | 161 | 0.26 | 250 | 55 | – | – | – | – | – | – | – |
| COC12[C@@H]3N[C@@H]3CN1C1=C(C(=O)C(N3CCN(C)CC3)=C(C)C1=O)[C@@H]2COC(N)=O (some centres undefined) | 3.2 | 0.2 | 183 | 0.24 | 261 | 34 | – | – | – | – | – | – | – |
| COC12[C@@H]3N[C@@H]3CN1C1=C(C(=O)C(N3CCC(O)(O)CC3)=C(C)C1=O)[C@@H]2COC(N)=O (some centres undefined) | 25.6 | 0.2 | 219 | 0.28 | 231 | – | – | – | – | – | – | – | – |
| COC12[C@@H]3N[C@@H]3CN1C1=C(C(=O)C(N3CCSCC3)=C(C)C1=O)[C@@H]2COC(N)=O (some centres undefined) | 3.2 | 0.4 | 178 | – | 211 | 44 | – | – | – | – | – | – | – |
| COC12[C@@H]3N[C@@H]3CN1C1=C(C(=O)C(N3CCN(c4ccc(C(C)=O)cc4)CC3)=C(C)C1=O)[C@@H]2COC(N)=O (some centres undefined) | 3.2 | 0.4 | 200 | – | 161 | 40 | – | – | – | – | – | – | – |
| COC12[C@@H]3N[C@@H]3CN1C1=C(C(=O)C(N3CCCC(C)C3)=C(C)C1=O)[C@@H]2COC(N)=O (some centres undefined) | 25.6 | 0.2 | 319 | – | 238 | – | – | – | – | – | – | – | – |
| COC12[C@@H]3N[C@@H]3CN1C1=C(C(=O)C(N3CCC(N4CCCCC4)CC3)=C(C)C1=O)[C@@H]2COC(N)=O (some centres undefined) | 12.8 | 1.6 | 200 | 0.28 | 194 | 29 | – | – | – | – | – | – | – |
| COC12[C@@H]3N[C@@H]3CN1C1=C(C(=O)C(N3CCCC3)=C(C)C1=O)[C@@H]2COC(N)=O (some centres undefined) | 25.6 | 0.4 | 161 | 0.35 | >333 | 64 | – | – | – | – | – | – | – |
| COC12[C@@H]3N[C@@H]3CN1C1=C(C(=O)C(N3CCOCC3)=C(C)C1=O)[C@@H]2COC(N)=O (some centres undefined) | 25.6 | 0.4 | 224 | 0.39 | 271 | 82 | – | – | – | – | – | – | – |
| COC12[C@@H]3N[C@@H]3CN1C1=C(C(=O)C(N3CCSC3)=C(C)C1=O)[C@@H]2COC(N)=O (some centres undefined) | 25.6 | 0.2 | 183 | 0.39 | 222 | 69 | – | – | – | – | – | – | – |
| COC12[C@@H]3N[C@@H]3CN1C1=C(C(=O)C(N(C)C)=C(C)C1=O)[C@@H]2COC(N)=O (some centres undefined) | 25.6 | 0.2 | 325 | – | 238 | – | – | – | – | – | – | – | – |
| COC12[C@@H]3N[C@@H]3CN1C1=C(C(=O)C(N3CC3)=C(C)C1=O)[C@@H]2COC(N)=O (some centres undefined) | 1.6 | 0.025 | 300 | 0.31 | 266 | 11 | – | – | – | – | – | – | – |
| COC12[C@@H]3N[C@@H]3CN1C1=C(C(=O)C(N3CCCCC3)=C(C)C1=O)[C@@H]2COC(N)=O (some centres undefined) | 12.8 | 0.2 | 322 | 0.27 | 183 | – | – | – | – | – | – | – | – |
| COC12[C@@H]3N[C@@H]3CN1C1=C(C(=O)C(N3CC=CC3)=C(C)C1=O)[C@@H]2COC(N)=O (some centres undefined) | 12.8 | 0.2 | 268 | – | 216 | -13 | – | – | – | – | – | – | – |
| COC12[C@@H]3N[C@@H]3CN1C1=C(C(=O)C(N3CCc4ccccc43)=C(C)C1=O)[C@@H]2COC(N)=O (some centres undefined) | 12.8 | 0.8 | 288 | – | 150 | – | – | – | – | – | – | – | – |
| COC12[C@@H]3N[C@@H]3CN1C1=C(C(=O)C(N3CC3c3ccccc3)=C(C)C1=O)[C@@H]2COC(N)=O (some centres undefined) | 3.2 | 0.2 | 200 | – | 311 | 38 | – | – | – | – | – | – | – |
| COC12[C@@H]3N[C@@H]3CN1C1=C(C(=O)C(N3CC3C)=C(C)C1=O)[C@@H]2COC(N)=O (some centres undefined) | 3.2 | 0.1 | 250 | 0.32 | 233 | 24 | – | – | – | – | – | – | – |
| COC12[C@@H]3N[C@@H]3CN1C1=C(C(=O)C(N3CC3C(N)=O)=C(C)C1=O)[C@@H]2COC(N)=O (some centres undefined) | 6.4 | 0.8 | 233 | – | 206 | – | – | – | – | – | – | – | – |
| CCN(CC)C1=C(C)C(=O)C2=C(C1=O)[C@H](COC(N)=O)C1(OC)[C@@H]3N[C@@H]3CN21 (some centres undefined) | 25.6 | 1.6 | 211 | 0.26 | 222 | – | – | – | – | – | – | – | – |
| COC(=O)C1CN1C1=C(C)C(=O)C2=C(C1=O)[C@H](COC(N)=O)C1(OC)[C@@H]3N[C@@H]3CN21 (some centres undefined) | 6.4 | 1.6 | 288 | – | 147 | – | – | – | – | – | – | – | – |
| COC12[C@@H]3N[C@@H]3CN1C1=C(C(=O)C(N3CCNCC3)=C(C)C1=O)[C@@H]2COC(N)=O (some centres undefined) | 12.8 | 0.2 | 288 | 0.26 | 200 | – | – | – | – | – | – | – | – |
| COC12[C@@H]3N[C@@H]3CN1C1=C(C(=O)C(N(C)CCN(C)C)=C(C)C1=O)[C@@H]2COC(N)=O (some centres undefined) | 25.6 | 0.8 | 211 | 0.33 | 267 | – | – | – | – | – | – | – | – |
| COC12[C@@H]3N[C@@H]3CN1C1=C(C(=O)C(N3CCC(O)C3)=C(C)C1=O)[C@@H]2COC(N)=O (some centres undefined) | 25.6 | 0.8 | 219 | 0.37 | 163 | – | – | – | – | – | – | – | – |
| CCOC(=O)C1CN1C1=C(C)C(=O)C2=C(C1=O)[C@H](COC(N)=O)C1(OC)[C@@H]3N[C@@H]3CN21 (some centres undefined) | 12.8 | – | 233 | – | 133 | – | – | – | – | – | – | – | – |
| COC12[C@@H]3N[C@@H]3CN1C1=C(C(=O)C(N3CC3C#N)=C(C)C1=O)[C@@H]2COC(N)=O (some centres undefined) | 12.8 | 0.2 | 228 | 0.3 | 339 | 2 | 5 | 0 | 0 | 0 | 65 | -1.3 | 307 |
